Legend:
Test in all cases: relative viability (nuclei count vs DMSO), 5 days (fraction); higher = more cells survive
[1] = compound: CNC(=O)c1ccccc1Sc1ccc2c(/C=C/c3ccccn3)n[nH]c2c1 [Axitinib] + Cc1nc(Nc2ncc(C(=O)Nc3c(C)cccc3Cl)s2)cc(N2CCN(CCO)CC2)n1 [Dasatinib] (partner 0.075 µM)
Outline: (§1)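 Values are medians from duplicate plates. Each reflects relative viability, defined as the nuclei count of treated wells over that of vehicle wells. Lung cancer cell lines in 1536-well plates were pin-tool dosed one day after seeding with one drug alone or with a fixed anchor-drug dose plus five library-drug doses (not always all listed) in √10 steps, then fixed, stained and imaged at 4× after 5 days.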

[2] = compound: CC1=CC=C(C=C1)C(=O)CN2C3=C(CCCC3)SC2=N [Pifithrin_alpha] + Nc1ncn([C@H]2C[C@H](O)[C@@H](CO)O2)c(=O)n1 [Decitabine] (partner 2 µM)
Outline: as §1

[3] = compound: Nc1nc(Nc2ccc3c(c2)CC[C@@H](N2CCCC2)CC3)nn1-c1cc2c(nn1)-c1ccccc1CCC2 [Bemcentinib] + CC(=O)Nc1cccc(-n2c(=O)n(C3CC3)c(=O)c3c(Nc4ccc(I)cc4F)n(C)c(=O)c(C)c32)c1 [Trametinib] (partner 0.02 µM)
Outline: as §1

[4] = compound: Nc1nc(Nc2ccc3c(c2)CC[C@@H](N2CCCC2)CC3)nn1-c1cc2c(nn1)-c1ccccc1CCC2 [Bemcentinib] + CC(C)C[C@H](NC(=O)[C@H](Cc1ccccc1)NC(=O)c1cnccn1)B(O)O [Bortezomib] (partner 0.002 µM)
Outline: as §1

Cell Line	relative viability ([1]; first compound 0.005 µM)	relative viability ([1]; first compound 0.01581 µM)	relative viability ([1]; first compound 0.05 µM)	relative viability ([1]; first compound 0.1581 µM)	relative viability ([1]; first compound 0.5 µM)	relative viability ([2]; first compound 1 µM)	relative viability ([2]; first compound 3.162 µM)	relative viability ([2]; first compound 10 µM)	relative viability ([2]; first compound 31.62 µM)	relative viability ([2]; first compound 100 µM)	relative viability ([3]; first compound 0.04 µM)	relative viability ([3]; first compound 0.1265 µM)	relative viability ([3]; first compound 0.4 µM)	relative viability ([3]; first compound 1.265 µM)	relative viability ([3]; first compound 4 µM)	relative viability ([4]; first compound 0.04 µM)	relative viability ([4]; first compound 0.1265 µM)	relative viability ([4]; first compound 0.4 µM)	relative viability ([4]; first compound 1.265 µM)	relative viability ([4]; first compound 4 µM)
NCI-H1666	0.836	0.838	0.825	0.88	0.829	0.523	0.595	0.557	0.615	0.569	0.972	0.954	0.926	1.01	0.925	0.649	0.937	0.854	0.895	0.759
LCLC-103H	0.524	0.516	0.483	0.402	0.364	0.659	0.7	0.708	0.636	0.65	0.706	0.736	0.679	0.712	0.707	1.06	1.03	1.09	1.1	1.01
NCI-H1755	0.444	0.436	0.479	0.439	0.388	0.74	0.632	0.731	0.593	0.729	0.765	0.817	0.818	0.768	0.813	0.982	1	0.973	0.995	0.961
NCI-H520	0.197	0.159	0.194	–	0.192	0.595	0.481	0.578	0.397	0.507	0.723	0.859	0.706	0.713	0.733	0.517	0.472	0.711	0.591	0.61
PC-14	0.247	0.227	0.297	0.257	0.314	0.236	0.184	0.219	0.155	0.123	0.857	0.783	0.947	0.879	0.892	0.86	0.849	0.934	0.911	1
NCI-H2405	0.203	0.202	0.232	0.214	0.199	–	0.678	0.708	0.592	0.668	0.6	0.732	0.621	0.7	0.722	1.01	0.853	0.985	1.07	0.938
NCI-H596	0.519	0.477	0.653	0.569	0.507	0.89	1.15	1.12	1.07	1.09	0.911	0.965	0.93	0.946	0.923	0.897	1.23	1.08	1.1	1.03

From the supplement of paper PMC10307832
